Reference: patent US20220175793A1, “THE USE OF AN MGLUR5 ANTAGONIST FOR TREATING OPIOID ANALGESIC TOLERANCE” (NOVARTIS AG, priority 2019, published 2022)

Tested on: morphine tolerant mice
Test: Opiate tolerance test (hot plate) in the mouse
Assay type: in vivo
Conditions: for foot-licking latency, change as compared with animals receiving morphine from Day 1 to Day 6: morphine 32 mg/kg i.p. twice daily Day 1 to Day 6, hot plate 54° C.
Protocol: The method, which detects tolerance to analgesic activity, follows that described by Fernandes et al (Naunyn-Schmiedeberg's Arch. Pharmacol., 297, 53-60, 1977).
Mice were placed onto a hot metal plate maintained at 54° C. surrounded by a Plexiglas cylinder (height: 13 cm; diameter: 19 cm) (Bioseb: model PE34). The latency to the first foot-lick was measured (maximum: 30 seconds). Morphine (32 mg/kg i.p.) or vehicle were administered twice daily for 6 days (at about 9:00 and 15:00), and then administered with morphine 8 mg/kg i.p. (or saline) 30 minutes before the test on Day 7 to assess morphine tolerance.
The test substances were each evaluated at 3 doses (1, 3 and 10 mg/kg for Compound (I) and 0.3, 1 and 3 mg/kg for Compound (II), administered in morphine tolerant mice p.o. acutely 60 minutes before the test on Day 7. The experiment included appropriate control groups to assess the potential effects of the test substances on morphine tolerance. Compound (III) was evaluated at 1 dose (10 mg/kg), administered under the same experimental conditions and was used as comparison substance.
10 mice were studied per group. The test was performed blind. Data were analysed by comparing treated groups with appropriate controls using unpaired Student's t tests.

[1] = 1 mg/kg p.o. acutely 60 minutes before the test on Day 7
[2] = 3 mg/kg p.o. acutely 60 minutes before the test on Day 7
[3] = 10 mg/kg p.o. acutely 60 minutes before the test on Day 7

COC(=O)N1CC[C@@H]2[C@H]1CCC[C@@]2(O)C#Cc1cccc(C)c1 [Compound (I), (−)-(3aR,4S,7aR)-4-Hydroxy-4-m-tolylethynyl-octahydro-indole-1-carboxylic acid methyl ester]
expression of morphine tolerance (conclusion) (1 mg/kg p.o. acutely): significantly decrease the expression of morphine tolerance | foot-licking latency, change as compared with animals receiving morphine from Day 1 to Day 6 [1]: +44% | foot-licking latency, change as compared with animals receiving morphine from Day 1 to Day 6 [2]: no significant effects | foot-licking latency, change as compared with animals receiving morphine from Day 1 to Day 6 [3]: no significant effects

COCc1cn(C2=NCC(=O)N3CCc4c(ccc(F)c4C4CC4)C3=C2)cn1 [Compound (II), 9-cyclopropyl-10-fluoro-2-(4-(methoxymethyl)-1H-imidazol-1-yl)-7,8-dihydro-[1,4]diazepino[7,1-a]isoquinolin-5(4H)-one]
foot-licking latency, change as compared with animals receiving morphine from Day 1 to Day 6 (0.3 mg/kg p.o. acutely 60 minutes before the test on Day 7): no effects | foot-licking latency, change as compared with animals receiving morphine from Day 1 to Day 6 [1]: +37% | expression of morphine tolerance (conclusion) (3 mg/kg p.o. acutely): significantly decrease the expression of morphine tolerance | foot-licking latency, change as compared with animals receiving morphine from Day 1 to Day 6 [2]: +38%

Cc1cccc(C#Cc2ccccc2)n1 [Compound (III), 2-methyl-6-(phenylethynyl)pyridine, reference compound]
expression of morphine tolerance (conclusion) (10 mg/kg p.o. acutely): significantly decrease the expression of morphine tolerance | foot-licking latency, change as compared with animals receiving morphine from Day 1 to Day 6 [3]: +32%
